Assay results published in publication PMC11762167, “G Protein-Coupled Receptor 17 Inhibits Glucagon-like Peptide-1 Secretion via a Gi/o-Dependent Mechanism in Enteroendocrine Cells” (Biomolecules, 2024).

Columns and labels:
Format in all cases: cell-based
hGPR17L [1] = target: T1, hGPR17L (Homo sapiens, UniProt Q13304); experiment: Endpoint cAMP (HTRF) in GLUTag cells expressing hGPR17L; set-up: host or cells: GLUTag cells (murine enteroendocrine line), adenoviral transduction; Mean Diff. of cAMP, MDL29,951 vs FSK alone (Tukey): unit not given here; settings: for Predicted (LS) mean diff.: Fig 2B, Forskolin; for Mean Diff. of cAMP, MDL29,951 vs FSK alone (Tukey): hGPR17L
T1 sequence (Q13304 whole entry): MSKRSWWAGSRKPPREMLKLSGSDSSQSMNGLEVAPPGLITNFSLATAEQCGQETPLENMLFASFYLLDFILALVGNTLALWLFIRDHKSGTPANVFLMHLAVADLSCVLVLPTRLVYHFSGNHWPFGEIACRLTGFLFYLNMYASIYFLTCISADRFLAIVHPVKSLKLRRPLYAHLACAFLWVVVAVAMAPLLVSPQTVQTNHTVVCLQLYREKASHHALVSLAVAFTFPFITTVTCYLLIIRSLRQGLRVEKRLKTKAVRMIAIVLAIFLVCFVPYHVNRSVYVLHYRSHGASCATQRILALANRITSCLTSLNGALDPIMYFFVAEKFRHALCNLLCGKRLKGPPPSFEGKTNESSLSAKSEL
Procedure: GLUTag cells were maintained in Dulbecco’s Modified Eagle Medium (DMEM) supplemented with 10% fetal bovine serum and 1% penicillin–streptomycin in a humidified incubator at 37 °C and 5% CO2. For adenovirus transduction, GLUTag cells were seeded into poly-D-lysine coated 96-well plates or 4-chamber slides. The next day, cells were transduced with adenoviruses (100–1250 viral particles per cell at time of seeding) as indicated. After 24–30 h, adenovirus-containing media was changed to serum-free growth media for overnight serum starvation. The following day, GLUTag cells were used for cAMP or calcium signaling assays, GLP-1 secretion assays, or immunostaining and imaging.
Endpoint cAMP measurements were conducted as follows. GLUTag cells were seeded into poly-D-lysine-coated 96-well plates and transduced with adenovirus as specified above and then tested for cAMP signaling. Medium was removed and cells were washed with cAMP stimulation buffer (Hanks’ balanced salt solution (HBSS), 20 mM HEPES, pH 7.4) and then incubated in cAMP stimulation buffer for 30 min at 37 °C and 5% CO2. Cells were then treated for 30 min with agonist and forskolin in the presence of 500 µM IBMX at 37 °C and 5% CO2. Stimulation buffer was then decanted, and cAMP lysis buffer (50 mM HEPES, 10 mM CaCl2, 0.35% Triton X-100, and 500 µM IBMX) was added and shaken at 700 rpm for 1 h. Lysate was transferred to a 384-well plate, and the cAMP levels were quantified using the Cisbio HTRF cAMP (Gi kit; Revvity, Waltham, MA, USA) according to the manufacturer’s protocol.

hGPR17L [2] = target: T1, hGPR17L; experiment: Calcium mobilization in HEK293 cells transfected with hGPR17L
Procedure: (§1) HEK293 cells were maintained and transfected as previously described.
Calcium flux in HEK293 cells was measured as previously described.

mGPR17 = mGPR17 (Mus musculus, UniProt Q6NS65); experiment: GloSensor cAMP in HEK293 cells transfected with mGPR17; set-up: host or cells: GLUTag cells, adenoviral transduction
Chain of mGPR17 (Q6NS65 whole entry): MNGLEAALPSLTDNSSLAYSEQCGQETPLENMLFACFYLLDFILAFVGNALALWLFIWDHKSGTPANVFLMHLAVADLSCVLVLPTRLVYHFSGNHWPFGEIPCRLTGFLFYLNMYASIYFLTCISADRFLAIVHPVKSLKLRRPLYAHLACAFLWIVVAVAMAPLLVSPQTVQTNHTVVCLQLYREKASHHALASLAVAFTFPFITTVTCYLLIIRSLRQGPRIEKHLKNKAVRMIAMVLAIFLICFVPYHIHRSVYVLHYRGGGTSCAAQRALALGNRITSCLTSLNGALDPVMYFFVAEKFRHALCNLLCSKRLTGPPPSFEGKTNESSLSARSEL
Procedure: as §1
Live-cell, real-time cAMP measurements were performed using Promega (Madison, WI, USA) GloSensor cAMP luminescent biosensor technology. Glosensor cAMP experiments were conducted as previously described in GLUTag cells and HEK293 cells.

O=C(O)CCc1c(C(=O)O)[nH]c2cc(Cl)cc(Cl)c12 [MDL29,951]
Predicted (LS) mean diff. (hGPR17L [1]; log [MDL29,951] (M) -7.6 vs. Vehicle, +100 ng/mL PTX): -4.54 | Predicted (LS) mean diff. (hGPR17L [1]; log [MDL29,951] (M) -7.6 vs. Vehicle, +Vehicle): -8.48 | Predicted (LS) mean diff. (hGPR17L [1]; log [MDL29,951] (M) -8.2 vs. Vehicle, +100 nM YM-254890): -9.253 | Predicted (LS) mean diff. (hGPR17L [1]; log [MDL29,951] (M) -8.2 vs. Vehicle, +100 ng/mL PTX): 0.26 | Predicted (LS) mean diff. (hGPR17L [1]; log [MDL29,951] (M) -8.2 vs. Vehicle, +Vehicle): 3.753 | Predicted (LS) mean diff. (hGPR17L [1]; log [MDL29,951] (M) -8.8 vs. Vehicle, +100 nM YM-254890): -3.55 | Predicted (LS) mean diff. (hGPR17L [1]; log [MDL29,951] (M) -8.8 vs. Vehicle, +100 ng/mL PTX): -5.335 | Predicted (LS) mean diff. (hGPR17L [1]; log [MDL29,951] (M) -8.8 vs. Vehicle, +Vehicle): 6.603 | Predicted (LS) mean diff. (hGPR17L [1]; log [MDL29,951] (M) -9.4 vs. Vehicle, +100 nM YM-254890): 1.64 | Predicted (LS) mean diff. (hGPR17L [1]; log [MDL29,951] (M) -9.4 vs. Vehicle, +100 ng/mL PTX): 2.945 | Predicted (LS) mean diff. (hGPR17L [1]; log [MDL29,951] (M) -9.4 vs. Vehicle, +Vehicle): 8.423 | maximum inhibition of forskolin-stimulated cAMP (hGPR17L [1]; at 390 nM MDL29,951, 10 µM forskolin): 37 ± 5.1% | Mean Diff. of cAMP, MDL29,951 vs FSK alone (Tukey) (hGPR17L [1]; log [MDL29,951] (M) -4.0): -0.306 | Mean Diff. of cAMP, MDL29,951 vs FSK alone (Tukey) (hGPR17L [1]; log [MDL29,951] (M) -4.6): -0.593 | Mean Diff. of cAMP, MDL29,951 vs FSK alone (Tukey) (hGPR17L [1]; log [MDL29,951] (M) -5.2): -1.138 | Mean Diff. of cAMP, MDL29,951 vs FSK alone (Tukey) (hGPR17L [1]; log [MDL29,951] (M) -5.8): -1.598 | Mean Diff. of cAMP, MDL29,951 vs FSK alone (Tukey) (hGPR17L [1]; log [MDL29,951] (M) -6.4): -1.654 | Mean Diff. of cAMP, MDL29,951 vs FSK alone (Tukey) (hGPR17L [1]; log [MDL29,951] (M) -7.0): -1.376 | Mean Diff. of cAMP, MDL29,951 vs FSK alone (Tukey) (hGPR17L [1]; log [MDL29,951] (M) -7.6): -0.7263 | Mean Diff. of cAMP, MDL29,951 vs FSK alone (Tukey) (hGPR17L [1]; log [MDL29,951] (M) -8.2): -0.237 | Mean Diff. of cAMP, MDL29,951 vs FSK alone (Tukey) (hGPR17L [1]; log [MDL29,951] (M) -8.8): -0.04325 | Mean Diff. of cAMP, MDL29,951 vs FSK alone (Tukey) (hGPR17L [1]; log [MDL29,951] (M) -9.4): -0.0985 | Mean Diff. (Tukey's multiple comparisons test), cAMP, Row 10 vs. Row 11 (hGPR17L [1]; hGPR17L-WT (1250), log [MDL29,951] (M) -4.0 vs. Vehicle, Forskolin stimulation, Figure 4B): -9.193 | Mean Diff. (Tukey's multiple comparisons test), cAMP, Row 9 vs. Row 11 (hGPR17L [1]; hGPR17L-WT (1250), log [MDL29,951] (M) -4.6 vs. Vehicle, Forskolin stimulation, Figure 4B): -17.14 | Mean Diff. (Tukey's multiple comparisons test), cAMP, Row 8 vs. Row 11 (hGPR17L [1]; hGPR17L-WT (1250), log [MDL29,951] (M) -5.2 vs. Vehicle, Forskolin stimulation, Figure 4B): -27.93 | Mean Diff. (Tukey's multiple comparisons test), cAMP, Row 7 vs. Row 11 (hGPR17L [1]; hGPR17L-WT (1250), log [MDL29,951] (M) -5.8 vs. Vehicle, Forskolin stimulation, Figure 4B): -39.19 | Mean Diff. (Tukey's multiple comparisons test), cAMP, Row 6 vs. Row 11 (hGPR17L [1]; hGPR17L-WT (1250), log [MDL29,951] (M) -6.4 vs. Vehicle, Forskolin stimulation, Figure 4B): -41.54 | Mean Diff. (Tukey's multiple comparisons test), cAMP, Row 5 vs. Row 11 (hGPR17L [1]; hGPR17L-WT (1250), log [MDL29,951] (M) -7.0 vs. Vehicle, Forskolin stimulation, Figure 4B): -35.32 | Mean Diff. (Tukey's multiple comparisons test), cAMP, Row 4 vs. Row 11 (hGPR17L [1]; hGPR17L-WT (1250), log [MDL29,951] (M) -7.6 vs. Vehicle, Forskolin stimulation, Figure 4B): -21.64 | Mean Diff. (Tukey's multiple comparisons test), cAMP, Row 3 vs. Row 11 (hGPR17L [1]; hGPR17L-WT (1250), log [MDL29,951] (M) -8.2 vs. Vehicle, Forskolin stimulation, Figure 4B): -11.12 | Mean Diff. (Tukey's multiple comparisons test), cAMP, Row 2 vs. Row 11 (hGPR17L [1]; hGPR17L-WT (1250), log [MDL29,951] (M) -8.8 vs. Vehicle, Forskolin stimulation, Figure 4B): -5.06 | Mean Diff. (Tukey's multiple comparisons test), cAMP, Row 1 vs. Row 11 (hGPR17L [1]; hGPR17L-WT (1250), log [MDL29,951] (M) -9.4 vs. Vehicle, Forskolin stimulation, Figure 4B): -7.193 | Calcium Emax (Mean Peak ΔF/F) (hGPR17L [2]): 1.92±0.22 | Calcium Potency (pEC50) (hGPR17L [2]): 7.29±0.11 | EC50 (hGPR17L [2]; read-out: Calcium Potency EC50): 0.051 µM | cAMP Maximum Inhibition (% Inhibition) (mGPR17; 3 µM forskolin): 61±3.4% | cAMP Potency (pEC50) (reversal of inhibition) (mGPR17; 3 µM forskolin): 4.74±0.23 | cAMP Potency (pIC50) (mGPR17; 3 µM forskolin): 8.48±0.20 | EC50 (mGPR17; 3 µM forskolin, read-out: cAMP Potency EC50 (reversal of inhibition)): 18 µM | IC50 (mGPR17; 3 µM forskolin-stimulated GloSensor cAMP, read-out: cAMP Potency IC50): 0.0033 µM | cAMP Effect of 100 μM MDL (% Inhibition) (mGPR17; 100 μM MDL29,951, 3 µM forskolin): 45±6.3%
